# What was measured:
# ACHN cells = assay: Cell Titer Glo viability assay, ACHN cells; assay type: cell-based; conditions: Homo sapiens, 144 h, absolute EC50
# Method in brief: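 Cells grown in MEM with 10% FCS were seeded at 500 (A427), 400 (ACHN) or 250 (DAOY) per well and treated the next day with compound at 17 to 10 000 nM. Viability relative to untreated control was read at 144 h by CellTiter-Glo 2.0.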
# [1] = biological target: T1, Wee1A kinase (CDK1 Tyr15 phosphorylation in ACHN renal cell carcinoma cells) (Homo sapiens, UniProt P30291); assay: High-content imaging of pCdk1 Y15, Wee1A kinase target engagement in ACHN cells; assay type: cell-based; conditions: 4 h treatment, nuclear positivity for pCdk1 Y15 vs DMSO control, read-out: CDK1 Tyr15 Phosphorylation EC50
# T1 construct: pCDK1 Tyr15 immunofluorescence read-out
# Method in brief: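 EC50 values come from the per-well fraction of cells with nuclear pCdk1 Y15 staining, normalised to DMSO control, by automated immunofluorescence imaging. Cells were ACHN renal carcinoma, treated 4 h with compound at 7–5,000 nM or 0.3–200 nM.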
# [2] = biological target: T2, Myt1 kinase (CDK1 Thr14 phosphorylation in ACHN renal cell carcinoma cells) (Homo sapiens, UniProt Q99640); assay: AlphaLISA assay, Myt1 kinase target engagement (phospho-CDK1 Thr14) in ACHN cells; assay type: cell-based; conditions: ACHN cells (marked *); 4 h treatment
# T2 construct: pCDK1 Thr14 AlphaLISA read-out
# T2 sequence (Q99640 1-499): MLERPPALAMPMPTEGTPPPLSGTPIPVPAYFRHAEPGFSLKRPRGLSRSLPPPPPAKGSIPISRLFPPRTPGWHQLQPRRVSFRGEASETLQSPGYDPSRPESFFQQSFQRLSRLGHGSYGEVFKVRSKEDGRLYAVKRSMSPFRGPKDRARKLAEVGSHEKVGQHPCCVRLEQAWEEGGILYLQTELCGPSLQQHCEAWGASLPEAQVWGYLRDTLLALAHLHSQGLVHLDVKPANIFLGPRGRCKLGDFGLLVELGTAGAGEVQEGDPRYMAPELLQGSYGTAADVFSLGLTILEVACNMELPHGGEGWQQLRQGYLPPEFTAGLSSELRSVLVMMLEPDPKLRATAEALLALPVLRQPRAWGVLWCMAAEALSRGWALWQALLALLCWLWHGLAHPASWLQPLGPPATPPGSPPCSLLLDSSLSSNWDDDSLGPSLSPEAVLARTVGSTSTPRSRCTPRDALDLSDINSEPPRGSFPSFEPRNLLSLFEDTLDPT
# Experimental: Each of an ACHN renal cell carcinoma cell line (ATCC) and a DAOY medulloblastoma cell line, and an A427 lung cancer line were cultured in Minimum Essential Medium Eagle supplemented with 10% fetal calf serum (Sigma), 1% Penicillin-Streptomycin and 10 mM HEPES buffer (HyClone). Cell cultures were kept in a humidified incubator at 37 °C and 5% CO2. Cells were routinely tested for Mycoplasma contamination.
# For target engagement assessment of Myt1 kinase inhibition, quantification of Cdk1 phosphorylated on threonine 14 was detected using the AlphaLISA® SureFire® Ultra™ Human Phospho-CDK1 (Thr14) assay (Perkin Elmer). DAOY or ACHN cells were seeded into tissue culture treated 96-well plates (VWR) to a density of 10,000 or 20,000 cells per well respectively. 24 h post seeding cells were treated for 4 h with compounds at concentrations ranging from 7 to 5000 nM. Cells were washed with PBS and lysed in 50 μl AlphaLISA lysis buffer before freezing at −80 C. Ten ul of the lysate was transferred to 384 well plates and incubated with AlphaLISA donor and acceptor beads according to the manufacturer's instructions. Dose response curves and EC50 values were calculated and visualized using GraphPad Prism version 9. Target engagement for Myt1 kinase can also be measured using the same AlphaLISA assay in OVCAR3 cells, an ovarian cancer cell line. NIH:OVCAR-3 (OVCAR3) cells are cultured in RPMI-1640 medium supplemented with 0.01 mg/ml insulin, 20% FBS, 1% Penicillin-Streptomycin and 10 mM HEPES buffer. 14,000 cells per well are seeded into 96 well tissue culture plates in full medium. Twenty-four hours post seeding, cells are treated with compound for 4 hours at concentrations ranging from 0.017 nM to 1000 nM.
# [3] = biological target: T3, Myt1 kinase (recombinant PMYT-1) (Homo sapiens, UniProt Q99640); assay: Myt1 kinase binding assay (LanthaScreen Eu Kinase Binding Assay); conditions: 3 nM tracer 178, 2.5 nM PMYT-1, 1 nM Eu-labeled antibody; read-out: Myt1 kinase Binding IC50
# T3 construct: full length PMYT-1 was expressed by baculovirus in insect cells; purchased Invitrogen A30984; host or cells: insect cells (baculovirus)
# T3 sequence (Q99640 1-499): T2 sequence (Q99640 1-499)
# Method in brief: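 Compound binding to Myt1 kinase was assessed using the LanthaScreen Eu Kinase Binding Assay. This europium-based binding format was applied to quantify how strongly each compound bound to the Myt1 enzyme, and the binding affinity was reported for each compound as an IC50 value.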
# [4] = biological target: T4, recombinant human Wee1A kinase (Homo sapiens, UniProt P30291); assay: Wee1A kinase binding assay (LanthaScreen Eu time-resolved FRET); conditions: 30 nM tracer 178, 5 nM Wee1A kinase, 2 nM Eu-labeled antibody; 60 minutes at room temperature; read-out: Wee1A kinase Binding IC50
# T4 construct: full length Wee1 kinase was expressed by baculovirus in insect cells; purchased Invitrogen PV3817; host or cells: insect cells (baculovirus)
# Method in brief: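 Full-length, baculovirus-expressed GST-tagged Wee1A (5 nM) was mixed with 2 nM Eu-anti-GST antibody, 30 nM kinase tracer 178 and compound (1% DMSO). Buffer was 50 mM HEPES pH 7.5, 10 mM MgCl2, 1 mM EGTA, 0.01% Brij-35, incubated 60 min at room temperature. TR-FRET 665/615 nm emission ratios from duplicates were curve-fitted.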
# T4 sequence (P30291 whole entry): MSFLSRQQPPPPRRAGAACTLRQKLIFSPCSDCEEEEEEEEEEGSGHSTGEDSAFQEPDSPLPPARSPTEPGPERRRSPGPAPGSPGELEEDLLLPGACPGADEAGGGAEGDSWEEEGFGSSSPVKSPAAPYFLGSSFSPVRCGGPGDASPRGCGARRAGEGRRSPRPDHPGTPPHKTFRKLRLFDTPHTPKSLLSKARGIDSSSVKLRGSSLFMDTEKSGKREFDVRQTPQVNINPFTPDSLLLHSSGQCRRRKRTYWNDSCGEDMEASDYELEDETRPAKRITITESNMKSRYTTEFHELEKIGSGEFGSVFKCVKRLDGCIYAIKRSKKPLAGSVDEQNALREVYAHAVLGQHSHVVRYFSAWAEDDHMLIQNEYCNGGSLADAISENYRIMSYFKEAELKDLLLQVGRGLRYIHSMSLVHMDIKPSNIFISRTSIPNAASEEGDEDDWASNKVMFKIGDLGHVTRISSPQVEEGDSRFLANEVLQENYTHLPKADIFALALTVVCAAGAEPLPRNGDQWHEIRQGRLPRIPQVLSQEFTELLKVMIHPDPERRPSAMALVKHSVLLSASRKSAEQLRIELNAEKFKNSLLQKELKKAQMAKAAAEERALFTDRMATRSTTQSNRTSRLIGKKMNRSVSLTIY
# T1 sequence (P30291 whole entry): as above
SMILES,EC50 (ACHN cells) [nM],EC50 [1] [nM],EC50 [2] [nM],IC50 [3] [nM],IC50 [4] [nM]
"C=CCn1c(=O)c2cnc(Nc3ccc4c(cnn4C)c3)nc2n1-c1cccc(O[C@@H]2CCN(C)[C@@H](C)C2)n1 (stereo in doubt) [Compound 403, rel-2-allyl-1-(6-(((2R,4S)-1,2-dimethylpiperidin-4-yl)oxy)pyridin-2-yl)-6-((1-methyl-1H-indazol-5-yl)amino)-1,2-dihydro-3H-pyrazolo[3,4-d]pyrimidin-3-one]",≤ 100,< 100,< 200,20 to 100,< 10
"C=CCn1c(=O)c2cnc(Nc3ccc4c(cnn4C)c3)nc2n1-c1cccc(NC2CCN(C)CC2)n1 [Compound 129, 6-[(1-methyl-1H-indazol-5-yl)amino]-1-{6-[(1-methylpiperidin-4-yl)amino]pyridin-2-yl}-2-(prop-2-en-1-yl)-1H,2H,3H-pyrazolo[3,4-d]pyrimidin-3-one]",≤ 100,< 100,> 1000,100 to 500,< 10
"C=CCn1c(=O)c2cnc(Nc3ccc(F)c(C)c3)nc2n1-c1cccc(OC2CCN(C)CC2)n1 [Compound 206, 6-[(4-fluoro-3-methylphenyl)amino]-1-{6-[(1-methylpiperidin-4-yl)oxy]pyridin-2-yl}-2-(prop-2-en-1-yl)-1H,2H,3H-pyrazolo[3,4-d]pyrimidin-3-one]",≤ 100,< 100,200 to 500,20 to 100,< 10
"CCn1c(=O)c2cnc(Nc3ccc(-c4cnn(C)c4)cc3)nc2n1-c1cccc(OC2CCN(C)CC2)n1 [Compound 277, 2-ethyl-1-[6-(1-methyl-4-piperidyloxy)-2-pyridyl]-6-[p-(1-methyl-4-pyrazolyl)phenylamino]-1,2-dihydro-3H-1,2,5,7-tetraazainden-3-one]",≤ 100,< 100,< 200,20 to 100,< 10
"C=CCn1c(=O)c2cnc(Nc3ccc(N4CCOCC4)cc3)nc2n1-c1cccc(OC2CCN(C)CC2)n1 [Compound 278, 2-allyl-1-(6-((1-methylpiperidin-4-yl)oxy)pyridin-2-yl)-6-((4-morpholinophenyl)amino)-1,2-dihydro-3H-pyrazolo[3,4-d]pyrimidin-3-one]",≤ 100,< 100,< 200,20 to 100,< 10
"C=CCn1c(=O)c2cnc(Nc3ccc4c(cnn4C)c3)nc2n1-c1ccnc(OC2CCN(C)CC2)n1 [Compound 279, 2-allyl-6-((1-methyl-1H-indazol-5-yl)amino)-1-(2-((1-methylpiperidin-4-yl)oxy)pyrimidin-4-yl)-1,2-dihydro-3H-pyrazolo[3,4-d]pyrimidin-3-one]",≤ 100,< 100,200 to 500,20 to 100,< 10
"C=CCn1c(=O)c2cnc(Nc3ccc4c(cnn4CC)c3)nc2n1-c1cccc(OC2CCNCC2)n1 [Compound 280, 2-allyl-6-((1-ethyl-1H-indazol-5-yl)amino)-1-(6-(piperidin-4-yloxy)pyridin-2-yl)-1,2-dihydro-3H-pyrazolo[3,4-d]pyrimidin-3-one]",≤ 100,< 100,200 to 500,< 20,< 10
"[2H]C([2H])([2H])N1CCC(Oc2cccc(-n3c4nc(Nc5ccc6c(cnn6C)c5)ncc4c(=O)n3CC=C)n2)CC1 [Compound 281, 2-allyl-6-((1-methyl-1H-indazol-5-yl)amino)-1-(6-((1-(methyl-d3)piperidin-4-yl)oxy)pyridin-2-yl)-1,2-dihydro-3H-pyrazolo[3,4-d]pyrimidin-3-one]",≤ 100,< 100,< 200,20 to 100,< 10
